# Reference: patent US20130045952A1, “ABA Receptor Agonists for Increased Plant Stress Resistance” (Van Andel Research Institute, priority 2011, published 2013)
# Experiments:
# [1] = test system: RD29B promoter-LUC reporter; assay: Protoplast transient assay, reconstituted ABA signaling pathway, RD29B-LUC reporter; assay type: cell-based, Arabidopsis thaliana; details: Arabidopsis protoplasts
# Method: The ABA signal transduction pathway was reconstituted in protoplasts by transient transfection of PYR/PYL receptor, ABI1, SnRK2.6, and ABF2 expression plasmids. Activation of an ABA-inducible RD29B promoter-LUC reporter was determined by luciferase assays normalized for β-glucuronidase activity from a UQ10-GUS reporter.
# An ABA-inducible luciferase reporter was constructed by replacing the CBF3 promoter in the CBF3-LUC construct with the promoter region of RD29B, a highly ABA-inducible gene^2. CBF3-LUC, UQ10-GUS and ABI1 protoplast expression plasmid vectors were kindly provided by Jen Sheen (Massachusetts General Hospital, Boston, Mass. 02114).
# Protoplasts were isolated from Arabidopsis thaliana ecotype Columbia-0 plants, which were grown on Jiffy7 soil (Jiffy Products Ltd., Canada) in an environment-controlled chamber at 22° C. with a photosynthetically active radiation of 75 μmol m^−2 s^−1 and a day/night cycle of 13 hours light/11 dark. Transient activity assays were performed in Arabidopsis mesophyll protoplasts from Columbia-0 wild-type plants as described by the Sheen laboratory^33. Transfected protoplasts were incubated for 5 hours in light in the presence of 0 or 5 μM (+) ABA and the indicated concentrations of pyrabactin, and then used for measuring LUC and GUS activity. […]
# [2] = test system: PP2Cs HAB1, ABI1, and ABI2; assay: Phosphatase assays, PYR/PYL receptor-dependent inhibition of PP2Cs; assay type: biochemical
# Method: (§1) To determine the biochemical basis of these observations, we used purified proteins of PYR1 and PYL1 to PYL6 to measure their interactions with three PP2Cs, HAB1, ABI1, and ABI2, in vitro. […] In phosphatase assays, pyrabactin promoted PYR1, PYL1, PYL3, PYL5, and PYL6, but not PYL2 and PYL4, to inhibit all three PP2Cs.
# (§2) Mutant proteins were expressed as H6GST-fusion proteins and purified by glutathione sepharose chromatography. Protein-protein interactions were determined by luminescence proximity AlphaScreen assay. Biotinylated PP2C proteins for the luminescence proximity assay were generated by in vivo biotinylation of avitag-PP2C fusion proteins. PP2C phosphatase activity was measured by phosphate release from a SnRK2.6 phosphoprotein.
# PP2Cs and PYR/PYL proteins were pre-incubated at the indicated concentrations in 50 mM imidazole, pH 7.2, 5 mM MgCl2, 0.1% β-mercaptoethanol and 0.5 mg/ml BSA for 30 min at room temperature. Reactions were started by addition of 100 μM of a phosphopeptide corresponding to amino acids 170-180 of SnRK2.6 (HSQPK^pSTVGTP). This peptide is phosphorylated at a single residue corresponding to Ser175 in SnRK2.6, whose phosphorylation is required for SnRK2.6 kinase activity^32. Phosphate release from ^pS175 from the phosphopeptide was determined by colorimetric assay (BioVision).
# PYL1 I137V = molecular target: T1, PYL1 I137V (Arabidopsis thaliana, UniProt Q8VZS8, I137V); assay: PP2C interaction of mutant PYL1 I137V receptors; assay type: biochemical; details: mutation of PYL1 I137 to valine; also in PYL1 A190V or V193I context
# T1 construct: PYL1 (residues 36-211), PYL2 (residues 14-188), and HAB1 (residues 172-511) were prepared as recombinant proteins in E. coli; made in house; host or cells: E. coli (stated for PYL1 in general)
# T1 sequence (Q8VZS8 36-211 I137V): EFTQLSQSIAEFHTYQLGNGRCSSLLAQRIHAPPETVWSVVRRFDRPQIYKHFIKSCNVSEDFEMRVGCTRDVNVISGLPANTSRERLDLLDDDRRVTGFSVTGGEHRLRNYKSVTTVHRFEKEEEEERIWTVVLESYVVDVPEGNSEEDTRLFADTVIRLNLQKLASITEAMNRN
# Method: One key question is why pyrabactin adopts different conformations between PYL1 and PYL2. The ligand binding pockets of PYL2 and PYL1 only differ in three residues (PYL2/PYL1: V114/1137, V166/A190, and V170/1194). […] In contrast, the V114/1137 change in PYL1 collides with the naphthalene ring of pyrabactin in the PYL2 conformation (C—C distance of 2.2 Å) and forces pyrabactin to flip by 180°. […] Due to the very weak pyrabactin agonist activity in wildtype PYL1, this change is most clearly seen in the context of two mutant PYL1 receptors, in which residues A190 and V193 from helix 3 were exchanged against larger side chains that stabilize the binding of pyrabactin.
# as §2
# Site-directed mutagenesis was carried out using the QuickChange method (Stratagene). Mutations and all plasmid constructs were confirmed by sequencing.
# [3] = test system: HAB1 PP2C / PYR/PYL receptors; details: yeast two-hybrid; cited from earlier work
# [4] = molecular target: T2, PYL6 / PP2Cs (HAB1, ABI1, ABI2) (Arabidopsis thaliana, UniProt Q8S8E3); assay: In vitro PYL6-PP2C interaction; assay type: biochemical; details: purified proteins in vitro
# T2 construct: made in house; host or cells: not expressly stated for PYL6
# T2 sequence (Q8S8E3 1-215): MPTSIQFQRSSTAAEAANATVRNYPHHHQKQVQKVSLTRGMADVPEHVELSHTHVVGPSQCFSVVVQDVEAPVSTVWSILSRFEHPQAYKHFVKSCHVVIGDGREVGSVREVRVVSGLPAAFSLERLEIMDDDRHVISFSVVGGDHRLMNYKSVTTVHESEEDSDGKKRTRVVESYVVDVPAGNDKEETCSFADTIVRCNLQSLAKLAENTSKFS
# Method: as §1, §2
# (§3) Interactions between PYR/PYL and PP2Cs were assessed by luminescence-proximity AlphaScreen technology (Perkin Elmer). Briefly, biotinylated PP2Cs were attached to streptavidin-coated donor beads, and H6-tagged PYR/PYL receptors were attached to nickel-chelated acceptor beads. The donor and acceptor beads were brought into proximity by the interactions between PYR/PYLs and PP2Cs, which were measured with and without ligands. When excited by a laser beam of 680 nm, the donor beam emits singlet oxygen that activates thioxene derivatives in the acceptor beads, which releases photons of 520-620 nm as the binding signal. […]
# [5] = test system: PYL4 / PP2Cs (HAB1, ABI1, ABI2); assay: In vitro PYL4-PP2C interaction; assay type: biochemical; details: purified proteins in vitro
# Method: as §1, §2, §3
structure (smiles),measurement,setting,value
"O=S(=O)(NCc1ccccn1)c1ccc(Br)c2ccccc12 [Pyrabactin, pyrabactin]",PYL2 and ABA-dependent induction of the ABA-inducible reporter,"[1]; receptor PYL2, with ABA",inhibited
same,PYR1-dependent induction of the ABA-inducible reporter RD29B-LUG,"[1]; receptor PYR1, concentration-dependent",promoted
same,Effect on ABA-dependent inhibition of PP2Cs by PYL2,"[2]; high concentrations of pyrabactin, in the presence of ABA",reversed
same,Promotion of PYL1 to inhibit all three PP2Cs,"[2]; phosphatase assays, receptor PYL1",promoted
same,Promotion of PYL2 to inhibit all three PP2Cs,"[2]; phosphatase assays, receptor PYL2",not and did not promote
same,Promotion of PYL3 to inhibit all three PP2Cs,"[2]; phosphatase assays, receptor PYL3",promoted
same,Promotion of PYL4 to inhibit all three PP2Cs,"[2]; phosphatase assays, receptor PYL4",not
same,Promotion of PYL5 to inhibit all three PP2Cs,"[2]; phosphatase assays, receptor PYL5",promoted
same,Promotion of PYL6 to inhibit all three PP2Cs,"[2]; phosphatase assays, receptor PYL6",promoted
same,Promotion of PYR1 to inhibit all three PP2Cs,"[2]; phosphatase assays, receptor PYR1",promoted
same,Response of mutant PYL1 I137V receptor,PYL1 I137V,pyrabactin-inhibited receptor
same,Interaction of the HAB1 PP2C with PYL1,[3],promoted
same,Interaction of the HAB1 PP2C with PYL2,[3],not
same,Interaction of the HAB1 PP2C with PYL3,[3],promoted
same,Interaction of the HAB1 PP2C with PYL4,[3],not
same,Interaction of the HAB1 PP2C with PYR1,[3],promoted
same,Promotion of PYL6 interaction with the three PP2Cs,[4],promoted interaction
same,Promotion of PYL4 interaction with the three PP2Cs,[5],promoted interaction
